From patent publication US9757324B2, “Emu oil in combination with other active ingredients for treating skin imperfections” (priority 2011, dated 2017)

Test: Histological examination of skin after topical application
Assay type: in vivo, volunteers
Protocol: A study conducted with Emu Oil and doxycycline was undertaken in volunteers with mild to moderate acne. Sixteen volunteers participated who had mild to moderate acne, and one had severe cystic acne. Within 48 hours of application of the combination, the acne had disappeared. Only the volunteer with severe cystic acne had to apply the combination for five days for the acne to resolve. The efficacy was 100%. […] There are no tropical formulations of doxycycline to compare with. On histological examination, doxycycline was found in the dermis within 15 minutes of topical application.

time after which doxycycline was found in the dermis: ≤ 15 min
SMILES: C[C@H]1c2cccc(O)c2C(=O)C2=C(O)[C@]3(O)C(=O)C(C(N)=O)=C(O)[C@@H](N(C)C)[C@@H]3[C@@H](O)[C@@H]21 [doxycycline]
